Experimental data published in paper PMC5007443, “TNIK inhibition abrogates colorectal cancer stemness” (Nature Communications, 2016).
pIC50: −log10 of the molar value.

Key:
Apc^min/+ mice = experiment: Intestinal tumorigenesis in Apc min/+ mice; format: in vivo, mouse; details: NCB-0846 HCl oral BID 22.5, 45, 90 mg kg−1, 35 days
Experimental: The mouse gut was filled with 10% buffered formalin (Sigma-Aldrich) via the anus immediately after sacrifice and opened longitudinally. The number and maximum diameter/area of tumours were measured by stereoscopic microscopy as described previously. Differences at P values of<0.05 were considered to be statistically significant.

PDX COX026 = experiment: Patient-derived xenograft COX026 in Nu/Nu nude mice; format: in vivo, mouse; details: COX026, NCB-0846 HCl oral 45 or 90 mg/kg BID, 5-day on, 2-day off
Experimental: (§1) Patient-derived colorectal cancer xenografts […] were established by Shanghai ChemPartner. Female Nu/Nu nude mice aged 5–6 weeks were implanted subcutaneously with the xenografts and randomized into three treatment groups (10 mice per group) based on the developed tumour volume (∼200 mm^3).
(§2) Tumour volume was estimated based on the formula: (length × width^2)/2. The tumour volume (twice a week) and body weight (every day) of each mouse were recorded. The patient-derived spheroids and xenografts were established after obtaining informed consent from the donors.

HCT116 xenografts = experiment: HCT116 xenograft growth in BALB/c-nu/nu mice; format: in vivo, mouse; details: oral, 40 or 80 mg kg−1 BID, 14 days
Experimental: Five million HCT116 cells suspended in medium containing 25% Matrigel (BD Biosciences) were inoculated into the subcutaneous tissues of 9-week-old female BALB/c nude mice. When the tumour volume reached ∼80 mm^3, the mice were randomized according to tumour volume (9 mice per group).
as §2

PDX COX021 = experiment: Patient-derived xenograft COX021 in Nu/Nu nude mice; format: in vivo, mouse; details: COX021, NCB-0846 HCl oral 45 or 90 mg/kg BID, 5-day on, 2-day off
Experimental: as §1, §2

HCT116 cells = experiment: CSC surface marker flow cytometry in HCT116 cells; format: cell-based, human; details: HCT116, 1 µM, 96 hours
Experimental: Cells were collected with Accutase, washed with stain buffer (BD Pharmingen), resuspended in 100 μl stain buffer (5 × 10^5 cells per 100 μl), and incubated with fluorophore-conjugated antibodies or their corresponding isotype-matched control antibodies (Supplementary Table 4) at 4 °C for 30 min. The cells were then washed twice and resuspended in 500 μl of stain buffer. 7-Aminoactinomycin D (7AAD; BD Pharmingen) was added to the samples before analysis. Relative fluorescence intensities were measured using a Guava easy Cyte HT flow cytometer following exclusion of dead cells on the basis of 7AAD incorporation. Data analysis was performed using Guava InCyte software (Merck-Millipore). Experiments were performed in triplicate and repeated at least two times.

[1] = system: TCF/LEF transcriptional activity; experiment: TCF/LEF luciferase reporter in Wnt3a-treated HEK293 cells; format: cell-based, human; details: Wnt3a-treated HEK293, 24 h
Experimental: HEK293 cells were transiently transfected with pGL4.49[luc2P/TCF-LEF-RE/Hygro] reporter vector (Promega) using Fugene HD Transfection Reagent (Promega; Fig. 2f). After overnight incubation, the cells were then treated with 10 mM LiCl (Sigma-Aldrich). Luciferase activity was measured using the ONE-Glo Luciferase Assay System (Promega). The assay was performed in triplicate and repeated at least two times.
In some experiments cells were treated with mouse Wnt3a (PeproTech) (Fig. 1c) or human Wnt3a (R&D Systems; Fig. 2f) before the measurements, as indicated in the figure legends.

[2] = system: TCF/LEF transcriptional activity of spheroid clone #6 Cl. 2; experiment: Spheroid TCF/LEF GFP reporter assay; format: cell-based; details: Homo sapiens, read-out: IC50, reduction of cells expressing Wnt-driven GFP
From the text: Lentiviral gene transfer of the reporter gene was used to evaluate the TCF/LEF transcriptional activity of patient-derived spheroids due to their poor transfection efficiency. Spheroids were infected with TCF/LEF reporter lentiviral particles encoding the green fluorescent protein (GFP) gene under the control of the TCF/LEF-responsive promoter (Cignal Lenti TCF/LEF Reporter (GFP) (Qiagen)) or relevant negative control lentiviral particles (Cignal Lenti negative control (GFP) (Qiagen)) at a multiplicity of infection of 10 in the presence of 4 μg ml^−1 SureEntry Transduction Reagent (Qiagen) for 24 h. GFP-positive spheroids were cloned by limiting dilution in the presence of 2 μg ml^−1 puromycin (Sigma-Aldrich; Fig. 6a,b).
GFP-positive cells were detected using the Guava easy Cyte HT flow cytometer (Fig. 6c). Experiments were performed in triplicate and repeated at least two times.

[3] = system: patient-derived colon cancer spheroid #19 xenograft; experiment: Xenograft of patient-derived spheroid #19 in NOD/ShiJic-scid mice; format: in vivo, mouse; details: NCB-0846 HCl oral 50 or 100 mg kg−1 BID, 6-days-on, 1-day-off
From the text: Patient-derived colorectal cancer spheroids were dissociated, resuspended in medium containing 50% Matrigel (Corning), and inoculated subcutaneously (#6; 1 × 10^4 cells per injection, #19; 1 × 10^5 cells per injection) into the flank of female NOD/ShiJic-scid mice (4-week-old females; CLEA Japan). When the tumour volume reached ∼200 mm^3, the mice were randomized according tumour volume (10 mice per group) and treatment was started.
as §2

O[C@H]1CC[C@@H](Oc2cccc3cnc(Nc4ccc5nc[nH]c5c4)nc23)CC1 [NCB-0846, cis-4-(2-(3H-benzo[d]imidazol-5-ylamino)quinazolin-8-yloxy)cyclohexanol]
effect on colon tumorigenesis (Apc^min/+ mice): not statistically significant
multiplicity and dimensions of tumours in the small intestine (Apc^min/+ mice): dose dependently reduced
growth of the PDXs (PDX COX026): significantly suppressed
growth of tumours (HCT116 xenografts): suppressed
growth of the PDXs (PDX COX021): significantly suppressed
proportion of cells showing high expression of CSC surface markers (CD44, CD133, CD166, CD29 and EpCAM) (HCT116 cells): reduced
TCF/LEF transcriptional activity [1]: inhibited
pIC50 [2]: 6.32
growth of tumours [3]: suppressed
